Measurements reported in patent publication US8058247B2 (priority 2006, dated 2011).

How the values were obtained:
[1] = system: M. avium subsp. avium ATCC25291; assay: Minimum growth inhibitory concentration (MIC), serial dilution on Middlebrook 7H10 agar with mycobactin J; type: cell-based, Mycobacterium avium subsp. avium; conditions: 3-week incubation at 37° C., smaller number = higher activity
[2] = system: M. avium subsp. paratuberculosis ATCC43015; type: cell-based, Mycobacterium avium subsp. paratuberculosis
M. bovis BCG Japanese = type: cell-based, Mycobacterium bovis; conditions: agar dilution, 3-week incubation at 37° C.; smaller number = higher activity

In the case of `NNC(=O)c1ccncc1` [INH, isoniazid], the “Minumum growth inhibitory conc. of test compounds, M. avium subsp. avium ATCC25291” value [1] is reported as over 50 µg/mL, the “Minumum growth inhibitory conc. of test compounds, M. avium subsp. paratuberculosis ATCC43015” value [2] is reported as over 50 µg/mL and the “antibacterial activity against Mycobacterium avium subsp. paratuberculosis compared with the caprazamycin derivatives of Production Examples 1 and 2” value [2] is reported as “lower antibacterial activity”. For the same molecule, the “Minumum growth inhibitory conc. of test compounds, M. bovis BCG Japanese” value (M. bovis BCG Japanese) was 0.20 µg/mL.

“caprazol-3′″-dodecanoyl ester derivative [Compound VII-F]” was tested, and the “Minumum growth inhibitory conc. of test compounds, M. avium subsp. avium ATCC25291” value [1] was 12.5 µg/mL, the “Minumum growth inhibitory conc. of test compounds, M. avium subsp. paratuberculosis ATCC43015” value [2] was 0.78 µg/mL and the “Minumum growth inhibitory conc. of test compounds, M. bovis BCG Japanese” value (M. bovis BCG Japanese) was 3.13 µg/mL.

For caprazamycin B [CPZ-B], the “Minumum growth inhibitory conc. of test compounds, M. avium subsp. avium ATCC25291” value [1] was 12.5 µg/mL, the “Minumum growth inhibitory conc. of test compounds, M. avium subsp. paratuberculosis ATCC43015” value [2] was 3.13 µg/mL and the “antibacterial activity against Mycobacterium avium subsp. paratuberculosis compared with the caprazamycin derivatives of Production Examples 1 and 2” value [2] was “lower antibacterial activity”. The “Minumum growth inhibitory conc. of test compounds, M. bovis BCG Japanese” value (M. bovis BCG Japanese) was 6.25 µg/mL.
